From US20230117470A1, “SUBSTITUTED PYRAZOLE COMPOUNDS AS TOLL RECEPTOR INHIBITORS” (BRISTOL-MYERS SQUIBB COMPANY, priority 2019, published 2023)

How the values were obtained:
Format in all cases: cell-based
[1] = molecular target: T1, human TLR7 (Homo sapiens, UniProt Q9NYK1); test: TLR7 inhibition reporter assay (HEK-Blue cells, SEAP reporter, gardiquimod stimulation); conditions: HEK-Blue cells overexpressing human TLR7, SEAP reporter, gardiquimod 7.5 μM
T1 construct: host or cells: HEK-Blue cells
T1 sequence (Q9NYK1 27-1049): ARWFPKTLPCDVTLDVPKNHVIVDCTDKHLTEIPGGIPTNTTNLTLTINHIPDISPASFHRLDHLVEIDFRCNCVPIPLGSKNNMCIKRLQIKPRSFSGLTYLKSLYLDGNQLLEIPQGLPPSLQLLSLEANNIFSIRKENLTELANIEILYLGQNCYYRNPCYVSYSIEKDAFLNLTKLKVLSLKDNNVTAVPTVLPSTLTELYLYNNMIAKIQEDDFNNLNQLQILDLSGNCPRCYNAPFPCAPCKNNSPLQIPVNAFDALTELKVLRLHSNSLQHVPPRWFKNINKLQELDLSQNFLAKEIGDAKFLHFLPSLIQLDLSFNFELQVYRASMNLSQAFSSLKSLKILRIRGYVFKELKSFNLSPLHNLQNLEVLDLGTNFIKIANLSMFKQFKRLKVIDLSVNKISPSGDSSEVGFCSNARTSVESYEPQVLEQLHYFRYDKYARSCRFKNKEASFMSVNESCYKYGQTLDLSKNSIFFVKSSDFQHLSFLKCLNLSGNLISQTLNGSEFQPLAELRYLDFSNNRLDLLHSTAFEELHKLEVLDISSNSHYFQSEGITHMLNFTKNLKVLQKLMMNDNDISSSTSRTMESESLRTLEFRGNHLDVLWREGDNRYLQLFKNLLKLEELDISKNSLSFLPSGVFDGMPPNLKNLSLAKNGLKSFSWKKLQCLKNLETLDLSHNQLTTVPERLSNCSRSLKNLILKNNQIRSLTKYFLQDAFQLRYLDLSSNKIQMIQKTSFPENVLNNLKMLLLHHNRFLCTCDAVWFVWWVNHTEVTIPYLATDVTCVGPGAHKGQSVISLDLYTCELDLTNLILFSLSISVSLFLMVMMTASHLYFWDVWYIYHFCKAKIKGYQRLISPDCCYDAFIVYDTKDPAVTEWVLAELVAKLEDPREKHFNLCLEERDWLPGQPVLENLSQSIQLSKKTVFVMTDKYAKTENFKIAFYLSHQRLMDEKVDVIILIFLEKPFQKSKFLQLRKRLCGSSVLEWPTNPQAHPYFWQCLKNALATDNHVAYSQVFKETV
How it was run: (§1)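 30 min RT cpd pre-incubation (0.05 nM–50 μM final dose response) → agonist: gardiquimod 7.5 μM / R848 15.9 μM / ODN2006 5 nM for TLR7/8/9 resp. → 22 h, 37° C → SEAP via detection medium. % inhibition vs agonist+DMSO and reference inhibitor controls.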

[2] = molecular target: T2, human TLR8 (Homo sapiens, UniProt Q9NR97); test: TLR8 inhibition reporter assay (HEK-Blue cells, SEAP reporter, R848 stimulation); conditions: HEK-Blue cells overexpressing human TLR8, SEAP reporter, R848 15.9 μM
T2 construct: host or cells: HEK-Blue cells
T2 sequence (Q9NR97 27-1041): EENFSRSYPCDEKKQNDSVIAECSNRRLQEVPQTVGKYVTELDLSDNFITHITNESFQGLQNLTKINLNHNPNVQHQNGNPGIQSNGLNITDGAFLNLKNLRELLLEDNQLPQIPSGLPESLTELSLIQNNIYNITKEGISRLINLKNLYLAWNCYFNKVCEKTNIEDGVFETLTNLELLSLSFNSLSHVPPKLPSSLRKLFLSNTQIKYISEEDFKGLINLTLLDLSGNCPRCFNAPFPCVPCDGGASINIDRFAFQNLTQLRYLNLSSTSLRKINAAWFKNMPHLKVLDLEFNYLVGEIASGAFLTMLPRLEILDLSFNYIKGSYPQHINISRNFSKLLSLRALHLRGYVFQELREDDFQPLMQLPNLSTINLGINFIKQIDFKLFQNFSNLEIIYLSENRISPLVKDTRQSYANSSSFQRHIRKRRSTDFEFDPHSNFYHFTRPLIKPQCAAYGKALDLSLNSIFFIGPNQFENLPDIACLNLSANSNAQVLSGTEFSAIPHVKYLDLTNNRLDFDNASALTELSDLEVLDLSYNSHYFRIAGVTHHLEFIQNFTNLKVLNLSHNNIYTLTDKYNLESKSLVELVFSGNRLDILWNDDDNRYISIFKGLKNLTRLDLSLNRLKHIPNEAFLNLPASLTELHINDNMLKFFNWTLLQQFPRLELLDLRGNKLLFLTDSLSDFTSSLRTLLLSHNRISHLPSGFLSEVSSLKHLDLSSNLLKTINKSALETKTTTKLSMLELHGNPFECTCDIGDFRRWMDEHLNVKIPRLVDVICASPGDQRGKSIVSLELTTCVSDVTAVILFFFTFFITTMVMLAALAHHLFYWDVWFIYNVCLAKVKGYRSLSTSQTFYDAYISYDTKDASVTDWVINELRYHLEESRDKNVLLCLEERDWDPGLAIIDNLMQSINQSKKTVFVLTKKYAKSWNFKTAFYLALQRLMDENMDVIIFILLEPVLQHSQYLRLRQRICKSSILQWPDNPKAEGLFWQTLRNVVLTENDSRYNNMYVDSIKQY
How it was run: as §1

[3] = molecular target: T3, human TLR9 (Homo sapiens, UniProt Q9NR96); test: TLR9 inhibition reporter assay (HEK-Blue cells, SEAP reporter, ODN2006 stimulation); conditions: HEK-Blue cells overexpressing human TLR9, SEAP reporter, ODN2006 5 nM
T3 construct: host or cells: HEK-Blue cells
T3 sequence (Q9NR96 26-1032): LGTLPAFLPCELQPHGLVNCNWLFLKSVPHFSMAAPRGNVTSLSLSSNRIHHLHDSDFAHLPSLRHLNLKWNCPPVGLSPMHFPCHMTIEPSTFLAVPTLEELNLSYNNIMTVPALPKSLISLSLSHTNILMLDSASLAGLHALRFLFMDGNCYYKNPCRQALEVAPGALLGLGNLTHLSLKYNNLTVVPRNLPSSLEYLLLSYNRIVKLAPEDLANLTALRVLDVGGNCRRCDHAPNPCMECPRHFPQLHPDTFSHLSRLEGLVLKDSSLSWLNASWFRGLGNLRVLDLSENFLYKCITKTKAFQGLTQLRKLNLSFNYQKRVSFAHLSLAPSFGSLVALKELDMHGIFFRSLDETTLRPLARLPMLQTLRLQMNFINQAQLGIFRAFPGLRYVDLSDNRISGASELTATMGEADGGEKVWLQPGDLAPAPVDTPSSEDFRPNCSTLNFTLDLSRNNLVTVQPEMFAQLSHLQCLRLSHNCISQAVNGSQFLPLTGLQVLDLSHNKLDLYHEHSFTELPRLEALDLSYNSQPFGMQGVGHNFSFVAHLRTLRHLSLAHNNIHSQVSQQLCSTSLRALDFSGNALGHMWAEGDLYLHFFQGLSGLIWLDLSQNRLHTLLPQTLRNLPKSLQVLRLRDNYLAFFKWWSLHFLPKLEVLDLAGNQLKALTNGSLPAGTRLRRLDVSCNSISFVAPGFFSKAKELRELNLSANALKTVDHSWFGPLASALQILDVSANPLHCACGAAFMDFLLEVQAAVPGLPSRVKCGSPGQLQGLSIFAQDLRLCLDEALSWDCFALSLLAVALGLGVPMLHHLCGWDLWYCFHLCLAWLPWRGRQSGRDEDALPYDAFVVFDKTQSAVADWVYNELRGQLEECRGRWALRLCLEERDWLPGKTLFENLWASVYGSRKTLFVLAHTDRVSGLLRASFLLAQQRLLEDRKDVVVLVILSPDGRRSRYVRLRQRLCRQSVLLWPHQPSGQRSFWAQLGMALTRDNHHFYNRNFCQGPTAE
How it was run: as §1

IC50 [1] [µM]	IC50 [2] [µM]	IC50 [3] [µM]	SMILES
0.0229	0.0445	> 50	CCN1CCC(c2ccc(-c3n[nH]c(-c4cc(OC)c5ncnn5c4)c3C(C)C)nc2)CC1 [Example 347, 6-(3-(5-(1-ethylpiperidin-4-yl)pyridin-2-yl)-4-isopropyl-1H-pyrazol-5-yl)-8-methoxy-[1,2,4]triazolo[1,5-a]pyridine]
0.00127	0.00101	4.77	Cc1cc(-c2[nH]nc(C(=O)N3CCCN(C)CC3)c2C(C)C)cn2ncnc12 [Example 23]
0.00159	0.00086	2.15	COc1cc(-c2[nH]nc(C(=O)NC3CCN(C(C)C)CC3)c2C(C)C)cn2ncnc12 [Example 12]
0.0374	0.0119	16.4	COc1ncc(CN2CCC(NC(=O)c3n[nH]c(-c4cc(C)c5ncnn5c4)c3C(C)C)CC2)cn1 [Example 157]
0.0297	0.00287	0.388	CNC(=O)c1n[nH]c(-c2cc(C)c3ncnn3c2)c1C(C)C [Example 27]
0.00256	0.00394	5.49	Cc1cc(-c2[nH]nc(-c3cncc(N)c3)c2C(C)C)cn2ncnc12 [Example 225]
0.00519	0.00097	19.7	Cc1cc(-c2[nH]nc(C3CCC(NC4CCN(C(C)C)CC4)CC3)c2C(C)C)cn2ncnc12 (single isomer, unassigned) [Example 289]
0.414	0.0603	14.7	CCN1CC(c2ccc(-c3n[nH]c(-c4cc(OC)c5ncnn5c4)c3C(C)C)cc2)C1 [Example 329]
0.00333	0.0542	> 50	CCC(CC)N[C@H]1CC[C@H](NC(=O)c2n[nH]c(-c3cc(C)c4ncnn4c3)c2C(C)C)CC1 [Example 119]
0.00137	0.0019	1.33	COc1cc(-c2[nH]nc(C(=O)N3CCCN(C)CC3)c2C(C)C)cn2ncnc12 [Example 10]
0.0235	0.0138	> 50	COc1cc(-c2[nH]nc(-c3nc4c(s3)CN(C(C)C)CC4)c2C(C)C)cn2ncnc12 [Example 259]
0.0369	0.0357	13.5	COc1cc(-c2[nH]nc(-c3cnc(C4CCN(CC(=O)N(C)C)CC4)cn3)c2C(C)C)cn2ncnc12 [Example 401]
0.00201	0.00814	0.76	Cc1cc(-c2[nH]nc(C(=O)NC3CCN(C(=O)OC(C)(C)C)CC3)c2C(C)C)cn2ncnc12 [Example 1, tert-butyl 4-(4-isopropyl-5-(8-methyl-[1,2,4]triazolo[1,5-a]pyridin-6-yl)-1H-pyrazole-3-carboxamido)piperidine-1-carboxylate]
0.00806	0.00319	> 50	Cc1cc(-c2[nH]nc(-c3cnc(NC(C)C)cn3)c2C(C)C)cn2ncnc12 [Example 241]
0.00437	0.00207	14.8	Cc1cc(-c2[nH]nc(C(=O)N3CCOCC3)c2C(C)C)cn2ncnc12 [Example 30]
0.00174	0.00076	13.5	CCc1c(C(=O)NC2CCN(C(C)C)CC2)n[nH]c1-c1cc(C)c2ncnn2c1 [compound 182]
0.102	0.0539	> 50	COCCN1CCC(c2cnc(-c3n[nH]c(-c4cc(OC)c5ncnn5c4)c3C(C)C)cn2)CC1 [Example 396]
0.0068	0.0389	22.4	Cc1cc(-c2[nH]nc(C(=O)NCC3CN(C(C)C)CCO3)c2C(C)C)cn2ncnc12 (stereo not drawn) [Example 135]
0.719	> 3.13	45.6	Cc1cc(-c2[nH]nc(-c3ccc(C4CCN(C(C)C)CC4)nc3)c2C(C)C)cn2ncnc12 [Example 361]
0.00777	0.00153	12.3	Cc1cc(-c2[nH]nc(C3CCC(N(C)C(=O)C4CNC4)CC3)c2C(C)C)cn2ncnc12 (stereo not drawn) [compound 301]
